A short description of data set [1]: Crystalline form stability under different temperature and humidity conditions. It counts as physicochemical. The procedure:
The samples of crystalline form 04 prepared in Example 1 were taken, and placed at 25° C./60% humidity and 40° C./75% humidity for 1 month; placed at 2-8° C. for 9 months: after the placement, the above-mentioned samples were taken out and tested for the crystalline form.

Data set [2] is described as follows: Mechanical pressure stability, XRPD after 2 tons of pressure. It counts as physicochemical. The note with it: 2 tons of mechanical pressure; for XRPD change after mechanical pressure: 100 mg sample. The method, then: To further evaluate the mechanical stability of the crystalline form 04 of the present application and the crystalline form K reported in WO 2018/039378 A1, a 100 mg sample was subjected to 2 tons of mechanical pressure, and the recovered tablets were gently ground and tested by XRPD.

Data set [3] in a line: Thermodynamic solubility test in water. It counts as physicochemical. Particulars: 25° C., 24 hours; for Area: HPLC. The procedure:
Thermodynamic solubility test: the solid powder was added to water to a saturated solution, and then the suspension liquid was stirred under magnetic stirring at 25° C. for 24 hours. After completion, it was filtered with a 0.20 μm filter and analyzed by HPLC. Tests were carried out in parallel, and each group was tested twice to take the average.

The nature of data set [4]: Crystalline form stability as exposed powder and in sealed vial. Particulars: for crystalline form stability in a sealed vial: 25° C./45% RH.
Data set [5] is described as follows: DVS test (moisture adsorption isotherm, hygroscopicity). Type of data set: physicochemical. The procedure: The sample of crystalline form 04 prepared in Example 1 was placed on a microbalance plate in a sealed sample chamber, and then exposed to different relative humidity, the relative humidity ranged from […] to 90%, and changed in 10% increments. At each humidity level, the sample is balanced when dm/dt is less than 0.002% within 10 minutes. The mass of the dried sample and the equilibrium mass at each humidity level were recorded, and the weight change was plotted against relative humidity, which is the moisture adsorption isotherm of the sample.
Regarding the description of hygroscopicity characteristics and the definition of hygroscopic weight gain (Appendix XIX J of Chinese Pharmacopoeia 2010 Edition, Guidelines for Hygroscopicity, with experimental conditions: 25±1° C., 80% relative humidity):
Deliquescent: sufficient water is absorbed to form liquid
Extremely hygroscopic: the increase in mass is not less than 15%
Hygroscopic: the increase in mass is less than 15% but not less than 2%
Slightly hygroscopic: the increase in mass is less than 2% but not less than 0.2%
Practical nonhygroscopic: the increase in mass is less than 0.2%.

Data set [6] is described as follows: Stability compared between crystalline forms.

“Also recorded” adds a separate entry of the source.

For the compound `C[C@@]1(O)CC[C@H]2[C@H](CC[C@@H]3[C@@H]2CC[C@]2(C)[C@@H](C(=O)Cn4cc(C#N)cn4)CC[C@@H]32)C1` [crystalline form 04, 1-(2-((3R,5R,8R,9R,10S,13S,14S,17S)-3-hydroxy-3,13-dimethylhexadecahydro-1H-cyclopenta[a]phenanthren-17-yl)-2-oxoethyl)-1H-pyrazole-4-carbonitrile], the “Crystalline form after storage” value is “the crystalline form remains” in data set [1] (0-8° C., 9 months); “form 04” in data set [1] (2-8° C., 9 months); “stored stably for one month without change; also recorded: form 04” in data set [1] (25° C., 60% relative humidity, 1 month); “stored stably for one month without change; also recorded: form 04” in data set [1] (40° C., 75% relative humidity, 1 month). Further, the “XRPD change after mechanical pressure” value in data set [2] is “no obvious change”. Also, in data set [2], the “mechanical / physical stability compared with crystalline form K” value is “better than that of the crystalline form K; also recorded: better mechanical stress stability”. Besides, the “Concentration (thermodynamic solubility)” value in data set [3] (Average) stood at 0.4375 µg/mL; in data set [3] (Group 1) it was 0.4506 µg/mL; in data set [3] (Group 2), 0.4243 µg/mL. The results for the Area in data set [3] (Average), in data set [3] (Group 1) and in data set [3] (Group 2) were 12.2 mAu*s, 12.6 mAu*s and 11.8 mAu*s, respectively. For the same compound, the “time stable in the exposed powder state” value in data set [4] (time in words) is reported as “one day”. The “crystalline form stability in a sealed vial” value (from here on “crystalline form stability”) in data set [4] is listed as “more than seven days”. The hygroscopicity entry in data set [5] (DVS curve) is “no or almost no hygroscopicity; also recorded: no hygroscopicity”. The water absorption in data set [5] (DVS, 25° C., relative humidity changed from 40%/0 to 90%) is given as 0.06%.
Take `C[C@@]1(O)CC[C@H]2[C@H](CC[C@@H]3[C@@H]2CC[C@]2(C)[C@@H](C(=O)Cn4cc(C#N)cn4)CC[C@@H]32)C1` [crystalline form 06, 1-(2-((3R,5R,8R,9R,10S,13S,14S,17S)-3-hydroxy-3,13-dimethylhexadecahydro-1H-cyclopenta[a]phenanthren-17-yl)-2-oxoethyl)-1H-pyrazole-4-carbonitrile]: in data set [4], the “time stable in the exposed powder state” value amounted to 16 h and the “crystalline form stability” value is recorded as “more than seven days”.
For the compound `C[C@@]1(O)CC[C@H]2[C@H](CC[C@@H]3[C@@H]2CC[C@]2(C)[C@@H](C(=O)Cn4cc(C#N)cn4)CC[C@@H]32)C1` [crystalline form 08, 1-(2-((3R,5R,8R,9R,10S,13S,14S,17S)-3-hydroxy-3,13-dimethylhexadecahydro-1H-cyclopenta[a]phenanthren-17-yl)-2-oxoethyl)-1H-pyrazole-4-carbonitrile], the “stability compared with other crystalline forms” value in data set [6] is “relatively low stability”.
For the compound `C[C@@]1(O)CC[C@H]2[C@H](CC[C@@H]3[C@@H]2CC[C@]2(C)[C@@H](C(=O)Cn4cc(C#N)cn4)CC[C@@H]32)C1` [crystalline form D-1, 1-(2-((3R,5R,8R,9R,10S,13S,14S,17S)-3-hydroxy-3,13-dimethylhexadecahydro-1H-cyclopenta[a]phenanthren-17-yl)-2-oxoethyl)-1H-pyrazole-4-carbonitrile], in data set [1] (0-8° C., 9 months), the “Crystalline form after storage” value is “the crystalline form remains”. Further, in data set [1] (2-8° C., 9 months), the “Crystalline form after storage” value is recorded as “the crystalline form did not change”. Also, in data set [4], the “time stable in the exposed powder state” value came out at 18 h and the “crystalline form stability” value was “more than seven days”. Further, the “stability compared with other crystalline forms” value in data set [6] was “better stability than crystalline form D”.
On to `C[C@@]1(O)CC[C@H]2[C@H](CC[C@@H]3[C@@H]2CC[C@]2(C)[C@@H](C(=O)Cn4cc(C#N)cn4)CC[C@@H]32)C1` [crystalline form D-2, 1-(2-((3R,5R,8R,9R,10S,13S,14S,17S)-3-hydroxy-3,13-dimethylhexadecahydro-1H-cyclopenta[a]phenanthren-17-yl)-2-oxoethyl)-1H-pyrazole-4-carbonitrile], for which, in data set [4], the “time stable in the exposed powder state” value amounted to 18 h and the “crystalline form stability” value is “more than seven days”. For the same compound, the “stability compared with other crystalline forms” value in data set [6] is listed as “better stability than crystalline form D”.
`C[C@@]1(O)CC[C@H]2[C@H](CC[C@@H]3[C@@H]2CC[C@]2(C)[C@@H](C(=O)Cn4cc(C#N)cn4)CC[C@@H]32)C1` [crystalline form K, 1-(2-((3R,5R,8R,9R,10S,13S,14S,17S)-3-hydroxy-3,13-dimethylhexadecahydro-1H-cyclopenta[a]phenanthren-17-yl)-2-oxoethyl)-1H-pyrazole-4-carbonitrile, reference compound]: the “XRPD change after mechanical pressure” value in data set [2] is reported as “a slight decrease in its crystallinity”. The “Concentration (thermodynamic solubility)” value in data set [3] (Average) was determined as 0.398 µg/mL; in data set [3] (Group 1) it was 0.3927 µg/mL; in data set [3] (Group 2), 0.4032 µg/mL. Besides, the Area was 11.1 mAu*s in data set [3] (Average), 10.9 mAu*s in data set [3] (Group 1) and 11.2 mAu*s in data set [3] (Group 2).

Values taken from patent US20220235094A1, “CRYSTALLINE FORMS OF ANTIDEPRESSANT DRUG SAGE-217 AND PREPARATION METHOD THEREFOR” (priority 2019, published 2022).
